Reference: patent publication US20150320836A1, “CRYOPRESERVATION OF CELLS INSIDE A MACRO-ENCAPSULATION DEVICE” (The Regents of the University of California, priority 2012, published 2015)
Where two headings read alike, the source gives them in different places.

How the values were obtained:
[1] = test system: islet like cell clusters (ICCs) of human Ins-G cells; type: cell-based; details: for viable yield: human
Experimental: While the level of DMSO will gradually decrease during elution, the extreme point was tested and the same high level of DMSO was maintained for the longevity of the entire exposure.
Increase of temperature of elution will shorten the time of elution but DMSO might cause increased toxicity at increased temperature. Driven by this dilemma, extreme treatments of post-thawed clusters were checked starting with immediate washing of DMSO, maintaining them for 20 min on 4° C. before washing, at 25° C. for 10 and 20 min and at +37° C. at 10 and 20 min (Experiment 3, FIG. 3A). […] There was one exception however, the cells incubated at room temperature for 20 minutes performed slightly poorer than the other treatments. […] This phenomenon was observed over a large number of experiments (N=6), but its basis is unclear. […] Further experiments would be needed to determine with certainty that RT is actually more detrimental than +37° C. or ice. The surviving cells retain insulin expressing capacity for all treatments (FIG. 3B).
Ultimately, the ability to freeze cell clusters inside an encapsulation device may require that the cells survive the time required to remove CPA upon thawing. Normally, when (unencapsulated) cells are thawed, CPA is removed quickly, either by centrifugation or by extensive dilution into culture media. However, for a cell-filled device, CPA removal will be accomplished via diffusion of CPA out of device into a large volume of wash media, until equilibration is reached. We estimated that approximately 20 minutes will be required to reach equilibrium, during which time cells are exposed to CPA. We therefore first examined the effects of post-thaw exposure to CPA in unencapsulated ICCs. Because equilibrium is also temperature dependent, we exposed thawed ICCs to CPA at 25° C. or 37° C. As we can see from FIG. 3A, sample 1, a control which was not exposed to CPA or frozen, reattachment of ICCs to tissue culture plates is 48%, lower than reattachment of dissociated cells (FIG. 1, sample 1). […]

[2] = test system: islet like cell clusters (ICCs) of human Ins-G cells; assay: ICCs loaded or frozen in TheraCyte encapsulation device; type: cell-based; details: frozen in TheraCyte device in 10% DMSO freezing medium
Experimental: Observing that the clusters can be exposed to DMSO both before freezing and after thawing when the cells were frozen in cryovials, cells were then frozen in the TheraCyte™ device (FIGS. 4A-C). Cells were exposed to DMSO during loading into the device. The port was then trimmed so that the device could fit a 1.5 mL cryovial which also contained 10-% DMSO freezing medium and froze them. After the vial was thawed, DMSO was eluted by placing the device in gently swirling medium solution (using magnetic stir bar). Without being limited by theory, this treatment may be sufficient to wash out the majority of DMSO before transplantation. Moreover this procedure mimics slow elution if the device is transplanted immediately after thawing, as a low concentration of DMSO is presumed to be non-toxic even for small animals. […] Barely 1/10 of loaded cells survived the whole procedure (including cutting device in pieces and placing into the dish, washing that out in 48 hrs, etc. (Experiment 4, FIG. 5). There can be several explanations for the cell loss, such as following.
We next addressed the effects of freezing ICCs inside the encapsulation device. As a control for freezing, ICCs resuspended in FM were loaded into devices which were sealed and then immediately opened and cells removed. Cell attachment following release from device averaged 64% and of the attached cells, 59% were viable. […]

[3] = test system: insulin-GFP transgene in human Ins-G ICCs; assay: Insulin-GFP expression after freezing ICCs and post-thaw DMSO exposure; type: cell-based; details: frozen, post-thaw DMSO 20 minutes at 37° C.
Description: In addition to survival, it is important that ICCs retain insulin gene expression during these manipulations. Human Ins-G cells express endogenous insulin message in response to tamoxifen (which activates the transcription factor […] by promoting translocation from the cytoplasm to the nucleus). The cells were also engineered to express GFP from an insulin transgene. Therefore, GFP expression in response to tamoxifen is a surrogate for insulin expression. We examined GFP expression in control ICCs (not frozen, not exposed to DMSO) as well as in cells frozen and exposed to DMSO for 20 minutes at 37° C. (FIG. 3B).

hESCs = assay: Exposure of dissociated hESCs to cryoprotective agent; type: cell-based, human; details: 10% DMSO 10 or 30 min, 4° C. or 37° C., no freezing
Experimental: hESCs are cultured as monolayers and are dissociated with Accutase, pelleted, and resuspended with either normal culture media (CM) as a positive control for cell viability or with the Freeze Medium (FM) containing 10% DMSO. Cells are either plated immediately in CM or incubated in FM for up to 30 minutes. Following incubation time, cells are allowed to reattach to tissue culture plates for 24 hours and then assessed for attachment and viability. DMSO concentration, freezing time, and freezing temperature, for example, may be varied to obtain best results for a given culture. […] As a result, the Viable Yield (the product of Attachment and Viability) is also similar among the 4 incubation conditions. Thus, exposure to DMSO without freezing produces a minimal effect on survival of dissociated cells monolayer cultures.

human Ins-G cells [4] = type: cell-based
Experimental: The sensitivity of dissociated human Ins-G cells to DMSO without cryopreservation (CP) was investigated. […] Temperatures ranging from 0° C. to 37° C. were investigated. Regardless, cell viability was practically indistinguishable from control cells not exposed to DMSO (FIG. 1A, column #1).
In prior studies with a macro-encapsulation device, we loaded cells into devices immediately prior to transplantation. Thus, until now we have not exposed encapsulated cells to CPA, yet the ability to freeze preloaded devices would ensure reproducibility between experiments and among users. The process of loading cells into the device requires approximately 20 min; beginning when cells are drawn up into a Hamilton syringe and slowly dispensed into the device, and ending when the syringe has been removed from the device port and the port has been sealed. We hypothesized therefore, that cells must withstand pre-freeze exposure to CPA for 20 minutes in order to be successfully cryopreserved in devices. […]
(§1) Cells cultured as monolayers were dissociated with Accutase, pelleted, and resuspended with either normal culture media (CM) as a positive control for cell viability or with the Freeze Medium (FM) containing 10% DMSO. […] Following incubation time, cells were allowed to reattach to tissue culture plates for 24 hours and then assessed for attachment and viability. […]

human Ins-G cells [5] = assay: Freezing dissociated Ins-G cells after pre-freeze incubation with DMSO; type: cell-based
Experimental: The effects of preincubation with DMSO on freeze/thaw viability were investigated. Freezing dissociated cells pre-exposed to Freeze Media containing 10% DMSO (FIG. 1B) also had no effect on cryosurvival, which per se was exceptionally good (up to 77-79% to control). In order to verify requirement for cryoprotective agents (CPA) in freezing, a sample was frozen in culture media (no DMSO). As expected, survival was very poor (11% in comparison to the positive control). […] Without being bound to theory, a possible explanation is that cell mortality resulted from slow (suboptimal) freezing injury, when cells are frozen at the rate substantially slower than the equilibrium “Mazur's rate” when the cells are just in equilibrium with freezing outer milieu. The suboptimal rates in the inverted U curve usually contributed to the effects of highly concentrated solutes rather than immediate cell destruction and fast necrosis associated with the supra-optimal (fast freezing, according to the 2-factor hypothesis developed by Mazur (Mazur et al. (1972) Experimental Cell Res., 71:345-349; Mazur et al. (2008) Biol Reprod, 78:2-12). The cell membrane rupture and other colligative osmotic damage due to excessive shrinkage and swelling usually manifest quickly as the loss of selective permeability properties so the cells become permeable to large particle dyes such Trypan Blue, soon after the treatment. The osmotic damage usually decreases with the temperature and step-wise addition and dilution (which, in fact, exposes the cells to CPA longer than an abrupt one-step addition or dilution). In contrast, a long exposure to a CPA or/and to very concentrated solutions of the cryoprotectant can manifest later in the form of, e.g., death due to specific chemical toxicity, particularly on membrane and epigenetic level as it may affect protein folding and membrane lipid bilayers, as it is shown for some types of cells (see, for example (Katkov II et al. (2006) Cryobiology, 53:194-205) for references. In contrast to osmotic damage, chemical toxicity usually exacerbates at longer exposure at higher temperature, and the prevalence of one mode vs. another can be easily differentiate by treating cells with higher temperatures and/or for longer exposure to the CPA (Katkov II (2011) Cryobiology, 62:242-4; Katkov II et al. (1998) Cryobiology, 37:325-38; Katkov II et al. (2007) Cryo Letters, 28:409-27).
as §1

[6] = test system: islet like cell clusters (ICCs) of human Ins-G cells; assay: Freezing ICCs: pre-freeze DMSO exposure and centrifugation; type: cell-based
Experimental: To more closely mimic the morphological structure of pancreatic islets, cells cultured as 3-dimensional ICCs were investigated. The first technical question was how to harvest clusters, whether by gentle (200 g×5 min) centrifugation or by settling by gravitational force (1 g). Here prefreeze exposure of the clusters to 10% DMSO at room temperature and +37° C. before freezing was investigated.
Two negative controls were employed. First (sample 1 on FIG. 2) were non-frozen clusters but the cells were exposed to 10% of DMSO for 20 min at +37° C. and centrifuged (200 g×5 min) The second control (Column #2) were cells that were not exposed top DMSO and frozen w/o it, with the same other procedures that in the first control. […] Apparently, some clusters were lost because they had not settled to the bottom of the tube either due to sub-optimal time or length of column 15-mL tube (Katkov II et al. (1999) Cell Biochem Biophys, 31:231-45). Cell clusters, it was observed, are more sensitive than dissociated cells from monolayer cultures even before and freezing (viability after thawing for the re-attached cells was in range of 61-72%, which was substantially lower than in monolayers (Experiment 2, FIG. 2). Thus, natural sedimentation was used with an increased time and decreased column length by using 50-mL conical tubes instead for the next experiments. […]

[7] = pre-freeze 10% DMSO 10 or 30 min, +4° C. or +37° C.

## C[S+](C)[O-] [DMSO, dimethyl sulfoxide]
[1]
  tolerance of post-thaw exposure to DMSO: well tolerated
  viable yield: 35-38%
[1]; 20 min
  viable yield: 21%
[2]
  fraction of loaded cells surviving the whole procedure: 1/10
[3]
  GFP expression versus control ICCs: no significant difference
hESCs
  survival: ≥ 80%
Human Ins-G cells [4]
  tolerance of exposure to 10% DMSO: well tolerated
Human Ins-G cells [4]; human, 10 %
  Viable Yield (product of Attachment and Viability): 63-73%
Human Ins-G cells [5]; frozen in Freeze Media with 10% DMSO after pre-exposure
  cryosurvival relative to control: 77-79%
Human Ins-G cells [5]; [7]
  Attachment efficiency after freezing: 73-77%
  Viable Yield after freezing: 63-73%
  viability of re-attached cells after freezing: 86-92%
[6]; ICCs frozen after pre-freeze 10% DMSO exposure
  viability after thawing of re-attached cells: 61-72%
[6]; clusters exposed to 10% DMSO at +37° C. for 20 min, centrifuged 200 g×5 min
  viable yield: 31%
